The results in this text go back to patent EP1298214A2, “Plant thioesterases” (Calgene LLC, priority 1990, dated 1991).

Assay [1] relates to pET3a control E. coli lysate. The assay can be described thus: Acyl-ACP hydrolysis by control E. coli lysate (unmodified pET3a). The format is biochemical. As to conditions: 1 hour induction with 1mM IPTG. The procedure: (§1) To assay for C12 thioesterase activity the following mixture is incubated at 30° for 30 min: "buffer" comprising 7mM KH2PO4-KOH pH 8, 20% v/v glycerol, 1mM dithiothreitol (DTT), 0.1% v/v Triton X100; sample to be tested for activity in the same or similar buffer as the "extraction buffer" described in Example 2; and 5µl of ^14C-radiolabeled lauroyl-ACP substrate for a total volume of 100µl and final lauroyl-ACP concentration of 0.5µM. Lauroyl-ACP substrate is prepared according to the method of Rock et al (Methods in Enzymology (1981) 72:397-403), using ACP prepared from Escherichia coli by the method of Rock and Cronan (Methods in Enzymology (1981) 71:341-351). The laurate is radiolabeled in the carboxylate group at a specific radioactivity of 50-60µCi/µmol.
(§2) The reaction is stopped by adding 0.5ml cold (0°) 10% v/v acetic acid. The fatty acid product of the hydrolytic enzyme action is extracted away from the unhydrolyzed substrate by adding 1ml diethyl ether and mixing vigorously. After settling for a few minutes the upper ether layer is transferred to 5ml scintillation fluid for determination of radioactivity by liquid scintillation spectrometry. Additional ether extractions may be performed to recover remaining traces of the reaction product for more accurate quantitation of the enzyme activity if desired. The amount of ether-extracted radioactivity is a direct measure of C12-preferring acyl-ACP thioesterase activity, provided the amount of enzyme is not sufficient to hydrolyze more than about 25% of the substrate. With greater activity than this the relationship between radioactivity in the ether layer and the quantity of enzyme becomes markedly nonlinear. The enzyme preparation must then be diluted appropriately to bring the activity into the linear range of the assay.
A pET3a vector (Rosenberg, et al., Gene (1987) 56:125-135) is used in an E. coil strain BL21 (PE3) (Studier and Moffat, J. Mol. Biol. (1986) 189:113-130) host for this study. The pET3a vector contains a promoter and 33 bp of the 5' reading frame of bacteriophase T7. T7 polymerase is under the regulatory control of an isopropyl-b-D-thiogalactopyranoside (IPTG)-inducible lac UV5 promoter found in the E. coli BL21 (DE3) strain. Thus, by the addition of IPTG to E. coli BL21 (DE3) transformed with pET3a, the T7 promoter will be activated.
Constructs are prepared containing the truncated cDNA of Fig. 2 fused in reading frame by deletion of the BamHI/EcoRI fragment and replacement of the thioesterase sequence. E. coli are transformed with pET3a constructs containing the thioesterase (pET3a-THI0) and unmodified pET3a as a control. The E. coli are grown at 37°C in liquid medium and expression is induced by the addition of 1mM IPTG. […]

Assay [2] has as its target T1, pCGN3823 induced E. coli lysate (mature bay thioesterase) (Umbellularia californica, UniProt Q41635).
T1 construct: the entire mature bay thioesterase protein is expressed as a lac fusion in E. coli cells; made in house
T1 sequence (Q41635 84-382): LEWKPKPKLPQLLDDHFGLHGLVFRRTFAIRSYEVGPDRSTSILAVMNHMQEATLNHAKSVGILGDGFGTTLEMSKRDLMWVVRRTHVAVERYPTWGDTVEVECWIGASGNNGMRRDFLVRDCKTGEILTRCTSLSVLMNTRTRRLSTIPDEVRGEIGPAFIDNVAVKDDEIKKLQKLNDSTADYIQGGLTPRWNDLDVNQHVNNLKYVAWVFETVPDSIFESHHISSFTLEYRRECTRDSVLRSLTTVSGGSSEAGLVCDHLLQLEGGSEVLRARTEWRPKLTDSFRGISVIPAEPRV
The assay can be described thus: Acyl-ACP hydrolysis by lysate of E. coli expressing mature bay thioesterase as lac fusion. As to conditions: Dilution 1/4000, one hour induction with 0.1mM IPTG. Format: biochemical. The procedure: as §1, §2
In addition, the entire mature bay thioesterase protein is expressed as a lac fusion in E. coli cells. […] Digestion at this XbaI site cleaves the coding region immediately 5' of the codon representing the leucine at amino acid position 72. This leucine has been identified as a candidate for the amino terminal residue as described in Example 14A.
An approximately 1200 bp fragment of pCGN3822 cDNA is generated by digestion with XbaI, which cuts at the postulated mature protein start site, as described above, and in the vector sequences flanking the 3' end of the cDNA. The XbaI fragment is cloned on XbaI digest of the minus version of a Bluescribe M13(+/-) (also called pBS+/-) cloning vector (Stratagene; San Diego, CA.). The thioesterase gene clone is inserted such that the mature protein is in reading frame with a portion of the lacZ gene of the Bluescribe vector and under control of the lac promoter. […]

In the case of 14:0-ACP, the entries for the “Hydrolysis Activity (mean cpm in ether extract)” value (from here on “Hydrolysis Activity”) in assay [1] and in assay [2] were 1271 cpm and 116 cpm, respectively.

For the substance 16:0-ACP, the “Hydrolysis Activity” value in assay [1] turned out to be 2848 cpm; in assay [2], 20 cpm.

Turning to decanoyl-ACP [10:0-ACP], the “Hydrolysis Activity” value in assay [1] is recorded as 787 cpm; in assay [2] it was 0 cpm.

Regarding lauroyl-ACP [12:0-ACP], the “Hydrolysis Activity” value in assay [1] is listed as 1028 cpm; in assay [2] it was 1840 cpm.
